Where two headings read alike, the source gives them in different places.
How the values were obtained:
[1] = target: human GABAA α1β3γ2 receptor (Homo sapiens (Human), UniProt P14867+P18507); test: Radioligand binding assay, competition for [3H]Flumazenil, γ2-containing GABAA subtypes; details: for γ2/γ1 Selectivity Ratio: Ki α1β3γ2 (nM)/Ki α2β2γ1 (nM); for LogSel: Log[Ki α1β3γ2 (nM)/Ki α2β2γ1 (nM)]
Summary of the method: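 Competition against [3H]Flumazenil binding in HEK293F cells transiently expressing human α1β3γ2 receptors, pellets resuspended in mannitol buffer pH 7,2-7,4. Incubated to equilibrium 1 hour at 4° C, filtered and washed with ice-cold 50 mM Tris pH 7.5, bound radioactivity by liquid scintillation counting. Ki values are means of two determinations.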

[2] = target: human GABAA α2β2γ1 receptor (Homo sapiens (Human), UniProt P47869+Q8N1C3); test: Radioligand binding assay, competition for [3H]RO7239181, γ1-containing GABAA subtypes; details: Ki h-GABAA α2β2γ1, membranes of HEK293F cells, [3H]RO7239181 20-30 nM
[3] = HEK293F cells, [3H]Flumazenil 1 nM, Table 1, read-out: Ki h-GABAA α1β3γ2

SMILES | Ki [1] [µM] | γ2/γ1 Selectivity Ratio ([1]; Table 1) | LogSel ([1]; Table 1) | Ki ([2]; Table 1) [µM] | Ki ([2]; Table 2) [µM] | Ki [1, 3] [µM]
Cc1cn2c(nc1=O)[C@H](C)N=C(c1c(F)cccc1F)c1c-2sc2c1CCCCC2 [Example 26, (8S)-10-(2,6-difluorophenyl)-4,8-dimethyl-19-thia-2,6,9-triazatetracyclo[9.8.0.02,7.012,18]nonadeca-1(11),3,6,9,12(18)-pentaen-5-one] | 6.04 | 188.9 | 2.28 | 0.032 | 0.032 | 
C[C@@H]1N=C(c2c(F)cccc2F)c2c(sc3c2COC[C@H](C)O3)-n2nc(C(=O)N3CC(OC(C)(C)C)C3)nc21 [Example 41, (3-tert-butoxyazetidin-1-yl)-[(7S,15S)-9-(2,6-difluorophenyl)-7,15-dimethyl-13,16-dioxa-18-thia-2,3,5,8-tetrazatetracyclo[8.8.0.02,6.011,17]octadeca-1(10),3,5,8,11(17)-pentaen-4-yl]methanone] |  | 188.2 | 2.27 | 0.0651 | 0.0651 | 12.3
Cc1nc2n(n1)-c1sc3c(c1C(c1c(F)cccc1F)=N[C@H]2C)COC[C@H](C)O3 [Example 39, (7S,15S)-9-(2,6-difluorophenyl)-4,7,15-trimethyl-13,16-dioxa-18-thia-2,3,5,8-tetrazatetracyclo[8.8.0.02,6.011,17]octadeca-1(10),3,5,8,11(17)-pentaene] | 9.12 | 157.6 | 2.20 | 0.0578 | 0.0578 | 
C[C@@H]1N=C(c2c(F)cccc2F)c2c(sc3c2COCCO3)-n2cc(C(=O)NCC3(O)CC3)nc21 [Example 65, (7S)-9-(2,6-difluorophenyl)-N-[(1-hydroxycyclopropyl)methyl]-7-methyl-13,16-dioxa-18-thia-2,5,8-triazatetracyclo[8.8.0.02,6.011,17]octadeca-1(10),3,5,8,11(17)-pentaene-4-carboxamide] |  | 53.8 | 1.73 | 0.0231 | 0.0231 | 1.24
C[C@@H]1N=C(c2c(F)cccc2F)c2c(sc3c2COCCC3)-n2nc(C(=O)NCC3(O)CC3)nc21 [Example 62, (7S)-9-(2,6-difluorophenyl)-N-[(1-hydroxycyclopropyl)methyl]-7-methyl-13-oxa-18-thia-2,3,5,8-tetrazatetracyclo[8.8.0.02,6.011,17]octadeca-1(10),3,5,8,11(17)-pentaene-4-carboxamide] |  | 200.3 | 2.30 | 0.0246 | 0.0245 | 4.92
CCNC(=O)c1nc2n(n1)-c1sc3c(c1C(c1c(F)cccc1F)=N[C@H]2C)COCCO3 [Example 37, (7S)-9-(2,6-difluorophenyl)-N-ethyl-7-methyl-13,16-dioxa-18-thia-2,3,5,8-tetrazatetracyclo[8.8.0.02,6.011,17]octadeca-1(10),3,5,8,11(17)-pentaene-4-carboxamide] |  | 121.1 | 2.08 | 0.0337 | 0.0337 | 4.08
C[C@@H]1N=C(c2c(F)cccc2F)c2c(sc3c2CCCCC3)-n2c(-c3cccnn3)nnc21 [Example 4, (7S)-9-(2,6-difluorophenyl)-7-methyl-3-pyridazin-3-yl-18-thia-2,4,5,8-tetrazatetracyclo[8.8.0.02,6.011,17]octadeca-1(10),3,5,8,11(17)-pentaene] | 4.52 | 94.6 | 1.98 | 0.0478 | 0.0478 | 
CC(C)c1nnc2n1-c1sc3c(c1C(c1c(F)cccc1F)=N[C@H]2C)COCCO3 [Example 44, (7S)-9-(2,6-difluorophenyl)-3-isopropyl-7-methyl-13,16-dioxa-18-thia-2,4,5,8-tetrazatetracyclo[8.8.0.02,6.011,17]octadeca-1(10),3,5,8,11(17)-pentaene] | 6.39 | 220.4 | 2.34 | 0.029 | 0.029 | 
C[C@@H]1N=C(c2c(F)cccc2F)c2c(sc3c2COCCC3)-n2nc(C(=O)N[C@H]3C[C@H](O)C3)nc21 [Example 63, (7S)-9-(2,6-difluorophenyl)-N-(trans-3-hydroxycyclobutyl)-7-methyl-13-oxa-18-thia-2,3,5,8-tetrazatetracyclo[8.8.0.02,6.011,17]octadeca-1(10),3,5,8,11(17)-pentaene-4-carboxamide] |  | 96.5 | 1.98 | 0.0459 | 0.0459 | 4.43
CCc1nc2n(n1)-c1sc3c(c1C(c1c(F)cccc1F)=N[C@H]2C)COC[C@H](C)O3 [Example 49, (7S,15S)-9-(2,6-difluorophenyl)-4-ethyl-7,15-dimethyl-13,16-dioxa-18-thia-2,3,5,8-tetrazatetracyclo[8.8.0.02,6.011,17]octadeca-1(10),3,5,8,11(17)-pentaene] | 8.75 | 166.8 | 2.22 | 0.0525 | 0.0525 | 
Cc1nc2n(n1)-c1sc3c(c1C(c1c(F)cccc1F)=N[C@H]2C)CCCCC3 [Example 20, (7S)-9-(2,6-difluorophenyl)-4,7-dimethyl-18-thia-2,3,5,8-tetrazatetracyclo[8.8.0.02,6.011,17]octadeca-1(10),3,5,8,11(17)-pentaene] | 1.28 | 101.9 | 2.01 | 0.0126 | 0.0126 | 
C[C@@H]1N=C(c2c(F)cccc2F)c2c(sc3c2CCCCC3)-n2c(C3CC3)nnc21 [Example 3, (7S)-3-cyclopropyl-9-(2,6-difluorophenyl)-7-methyl-18-thia-2,4,5,8-tetrazatetracyclo[8.8.0.02,6.011,17]octadeca-1(10),3,5,8,11(17)-pentaene] | 1.36 | 51.0 | 1.71 | 0.0266 | 0.0267 | 
Cc1nc2n(n1)-c1sc3c(c1C(c1c(F)cccc1F)=N[C@H]2C)COCCC3 [Example 57, (7S)-9-(2,6-difluorophenyl)-4,7-dimethyl-13-oxa-18-thia-2,3,5,8-tetrazatetracyclo[8.8.0.02,6.011,17]octadeca-1(10),3,5,8,11(17)-pentaene] | 4.52 | 615.2 | 2.79 | 0.0073 | 0.0073 | 
C[C@@H]1N=C(c2c(F)cccc2F)c2c(sc3c2COC[C@H](C)O3)-n2nc(C(=O)NCCO)nc21 [Example 53, (7S,15S)-9-(2,6-difluorophenyl)-N-(2-hydroxyethyl)-7,15-dimethyl-13,16-dioxa-18-thia-2,3,5,8-tetrazatetracyclo[8.8.0.02,6.011,17]octadeca-1(10),3,5,8,11(17)-pentaene-4-carboxamide] |  | 119.7 | 2.08 | 0.0953 | 0.0953 | 11.4
Cc1nnc2n1-c1sc3c(c1C(c1c(F)cccc1F)=N[C@H]2C)CCCCC3O (mixture of isomers) [Example 9, (7S,16RS)-9-(2,6-difluorophenyl)-3,7-dimethyl-18-thia-2,4,5,8-tetrazatetracyclo[8.8.0.02,6.011,17]octadeca-1(10),3,5,8,11(17)-pentaen-16-ol] | 1.13 | 79.4 | 1.90 | 0.0143 | 0.0143 | 
CCc1nnc2n1-c1sc3c(c1C(c1c(F)cccc1F)=N[C@H]2C)COCCO3 [Example 42, (7S)-9-(2,6-difluorophenyl)-3-ethyl-7-methyl-13,16-dioxa-18-thia-2,4,5,8-tetrazatetracyclo[8.8.0.02,6.011,17]octadeca-1(10),3,5,8,11(17)-pentaene] | 4.27 | 134.9 | 2.13 | 0.0317 | 0.0317 | 
Cc1nc2n(n1)-c1sc3c(c1C(c1c(F)cccc1F)=N[C@H]2C)COCCO3 [Example 28, (7S)-9-(2,6-difluorophenyl)-4,7-dimethyl-13,16-dioxa-18-thia-2,3,5,8-tetrazatetracyclo[8.8.0.02,6.011,17]octadeca-1(10),3,5,8,11(17)-pentaene] | 1.94 | 353.3 | 2.55 | 0.0055 | 0.0055 | 
C[C@@H]1N=C(c2c(F)cccc2F)c2c(sc3c2CCCCC3)-n2ccc(=O)nc21 [Example 7, (8S)-10-(2,6-difluorophenyl)-8-methyl-19-thia-2,6,9-triazatetracyclo[9.8.0.02,7.012,18]nonadeca-1(11),3,6,9,12(18)-pentaen-5-one] | 7.69 | 205.1 | 2.31 | 0.0375 | 0.0375 | 
Cc1nnc2n1-c1sc3c(c1C(c1c(F)cccc1F)=N[C@H]2C)CC[C@@H](F)CO3 [Example 56, (7S,14R)-9-(2,6-difluorophenyl)-14-fluoro-3,7-dimethyl-16-oxa-18-thia-2,4,5,8-tetrazatetracyclo[8.8.0.02,6.011,17]octadeca-1(10),3,5,8,11(17)-pentaene] | 11.5 | 290.8 | 2.46 | 0.0394 | 0.0394 | 
